One data set deals with T1, YcgR (Salmonella enterica, UniProt Q8ZP19).
T1 construct: His6-YcgR
Kind of data set: UV-crosslinking with biotinylated c-di-GMP (YcgR as positive-control protein). Type of data set: binding.

The target in another data set is T2, NadR (Salmonella enterica, UniProt P24518).
T2 construct: N-terminal His6-tagged NadR
T2 sequence (P24518 1-410): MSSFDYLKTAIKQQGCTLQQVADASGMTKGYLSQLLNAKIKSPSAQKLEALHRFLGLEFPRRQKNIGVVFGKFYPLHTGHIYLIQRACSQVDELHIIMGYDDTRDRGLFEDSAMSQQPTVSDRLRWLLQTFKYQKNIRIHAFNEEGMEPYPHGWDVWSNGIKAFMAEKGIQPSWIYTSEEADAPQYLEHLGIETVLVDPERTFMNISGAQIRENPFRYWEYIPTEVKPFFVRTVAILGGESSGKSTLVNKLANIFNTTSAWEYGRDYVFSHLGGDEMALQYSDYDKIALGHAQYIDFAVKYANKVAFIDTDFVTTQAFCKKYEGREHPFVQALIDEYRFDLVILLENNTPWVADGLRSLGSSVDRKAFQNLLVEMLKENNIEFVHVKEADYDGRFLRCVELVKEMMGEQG
The experiment in a line: ITC; also UV-crosslinking with unlabeled competitor, EMSA, enzyme activity stimulation. It is filed as binding. (ITC needs no label: the signal is the heat of the interaction.)

The target in data set [1] is T3, NadR (Salmonella enterica serovar Typhimurium) (UniProt P24518).
T3 sequence: T2 sequence (P24518 1-410)
The experiment in a line: EMSA. The note with it: EMSA: 50 ng DNA, 20 mM Tris pH 7.5, 100 mM NaCl, 10% glycerol, 4 mM MgCl2, 1% NP-40, 1 mM DTT, 25 uL, 20 min room temperature; 6% native PAGE, 0.5x TBE, SYBR …. On the technique in general: In EMSA bound probe runs differently from free probe, usually more slowly.

The record followed here is PMC12421817, “c-di-GMP regulates bacterial NAD biosynthesis via targeting the transcriptional repressor NadR” (mBio, 2025).

T1 sequence (Q8ZP19 whole entry): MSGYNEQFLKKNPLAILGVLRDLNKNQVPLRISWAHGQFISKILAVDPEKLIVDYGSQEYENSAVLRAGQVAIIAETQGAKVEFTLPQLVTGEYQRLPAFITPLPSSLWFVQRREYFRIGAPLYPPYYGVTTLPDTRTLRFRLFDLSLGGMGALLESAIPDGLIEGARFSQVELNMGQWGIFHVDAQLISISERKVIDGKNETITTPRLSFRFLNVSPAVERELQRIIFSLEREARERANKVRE

As a reminder, the Kd is the constant that tells how readily two partners part at equilibrium. A lower Kd goes with higher affinity. As to `Nc1nc2c(ncn2[C@@H]2O[C@@H]3COP(=O)(O)O[C@H]4[C@@H](O)[C@H](n5cnc6c(=O)[nH]c(N)nc65)O[C@@H]4COP(=O)(O)O[C@H]3[C@H]2O)c(=O)[nH]1` [c-di-GMP], the “UV-crosslinking with biotinylated c-di-GMP (YcgR as positive-control protein)” value on YcgR is “YcgR could obviously bind biotinylated c-di-GMP, while InvF, which was used as a negative control, showed no biotin-binding signal”. For the same molecule, on NadR, the Kd is 160 ± 20 nM.

For the molecule “GCTCATCGTGGCTTCTCGTTTTACTGACTTAACGAAACAACCGAATGAAAGCGTAATAAACGCCACAATCGGTTAATTTGTTTTATATGCTAAACAAGATAGCTGATTCAATAAGGAAAGTCACAATAATTACGTAGCCCCGTATCTGATGGCGGCGTAACGTCTTATCTGGCCTACGTGAGCGGTGCCGTCTGTAGGCCTGAT (double strand) [nadA-pnuC promoter]”, the binding entry in data set [1] is on record as “binds”.

For “GGTTCTTGTTTAATTTACTAAACATGGTTGCGGCAGATTAGCACTATATGGCGCTAAAAAGCACGTTATGATTTCGCTGGTGTTGTGCTTATTAAACATAAAATAAAAATACGGCGAGAGATAAACGGCAAAAAATATTTTATAGGGCAGGGTGTTAGCGTCGGATTTTGTAGTGAAATAAAGATGCTGTTAGGTTACTC (double strand) [nadB promoter]”, in data set [1], the binding entry was “binds”.
